# From patent publication US20220389500A1, “PURIFYING AND POLYMERIZING 3'-BLOCKED NUCLEOTIDES” (ILLUMINA, INC., priority 2021, published 2022)
# Columns and labels:
# [1] = Concentrations of byproducts diphosphate and tetraphosphate in nucleotide solutions vs HPBCD, magnesium ions and nucleotides (FIG. 15); format: physicochemical; conditions: solutions with buffer, polymerase and oligonucleotide template
# Text: A precipitate was formed and a color change of solution was observed when nucleotides (3′-blocked and 3′-OH), which were coupled to different fluorescent dyes, were mixed with polishing polymerase, a template, magnesium ions (from magnesium acetate), and a buffer. The change in color was interpreted as the solution having a reduced concentration of fluorescent dyes, and the precipitate was interpreted as being an aggregation of the nucleotides coupled to the fluorescent dyes. […] The plots described below with reference to FIGS. 12-15 were obtained by using the measured normalized intensities, together with the corresponding concentrations of different solution components, in a model that interpolated the behavior of the solution system for additional concentrations. […]
# FIG. 15 includes plots of the concentrations of different byproducts as a function of concentrations of the modified β-cyclodextrin HPBCD, of magnesium ions, and of the fluorescently labeled nucleotides FFA-1, FFA-3, and FFC-1. More specifically, the respective concentrations of diphosphate and tetraphosphate in the solutions were measured and used in the above-noted models. […]
# [2] = Observation of precipitate and color change of dye-coupled nucleotide solutions with polishing polymerase, template, magnesium ions and buffer; format: physicochemical; conditions: HPBCD added to dye-coupled nucleotides, magnesium ions (magnesium acetate) and buffer
# Text: A precipitate was formed and a color change of solution was observed when nucleotides (3′-blocked and 3′-OH), which were coupled to different fluorescent dyes, were mixed with polishing polymerase, a template, magnesium ions (from magnesium acetate), and a buffer. The change in color was interpreted as the solution having a reduced concentration of fluorescent dyes, and the precipitate was interpreted as being an aggregation of the nucleotides coupled to the fluorescent dyes. […] From this it was inferred that modified α-cyclodextrins (such as (2-hydroxypropyl)-α-cyclodextrin), other modified β-cyclodextrins (such as […], HEBCD), or modified γ-cyclodextrins (such as (2-hydroxypropyl)-γ-cyclodextrin) may promote solubility of the nucleotides and/or of the fluorescent dyes. A series of solutions were prepared in which the concentration of magnesium ions was varied between 0 and 6.3 mM, the concentration of HPBCD was varied between 0% and 10% (w/v), and the concentration of nucleotides including fluorescent dyes was varied between 0.5 and 1.5 mM. […] The plots described below with reference to FIGS. 12-15 were obtained by using the measured normalized intensities, together with the corresponding concentrations of different solution components, in a model that interpolated the behavior of the solution system for additional concentrations. […]
smiles,measurement,setting,value
"CC(O)COC[C@H]1O[C@@H]2O[C@H]3[C@H](O)[C@@H](O)[C@@H](O[C@H]4[C@H](O)[C@@H](O)[C@@H](O[C@H]5[C@H](O)[C@@H](O)[C@@H](O[C@H]6[C@H](O)[C@@H](O)[C@@H](O[C@H]7[C@H](O)[C@@H](O)[C@@H](O[C@H]8[C@H](O)[C@@H](O)[C@@H](O[C@H]1[C@H](O)[C@H]2O)O[C@@H]8COCC(C)O)O[C@@H]7COCC(C)O)O[C@@H]6COCC(C)O)O[C@@H]5COCC(C)O)O[C@@H]4COCC(C)O)O[C@@H]3COCC(C)O (stereo partly drawn) [HPBCD, (2-hydroxypropyl)-β-cyclodextrin]","effect on formation of byproducts (diphosphate, tetraphosphate)",[1],suppressed the formation of different byproducts
same,precipitate formation and color change of solution,[2],did not form a precipitate or change color
